From US11968999B2, “Use and composition of buffer formulation with multiple pH values and protein digestion enhancer” (ECO-GEO BIO-TECHNOLOGY COMPANY LIMITED, priority 2018, dated 2024)

Experiments:
pepsin = pepsin (Homo sapiens, UniProt P0DJD8); test: Proteolysis of casein by pepsin with ascorbic acid in citric acid buffer (OPA fluorescence, TAAE); format: biochemical
Method: 1. […]
(§1) The four test tubes were respectively incubated at 37° C. for 10 minutes, 1 hour, 2 hours and 3 hours, an equal amount of 10% trichloroacetic acid (TCA) solution was added into each test tube and mixed with the control solution uniformly, and the test tubes were held at room temperature for 10 minutes and then centrifuged at 3000 rpm for 10 minutes. 20 μL of the supernatants taken from the above-mentioned test tubes at four time points were put into four new test tubes. 2.4 mL o-phthalaldehyde (OPA) reagent was added into each new test tube and held for 2 minutes, and the fluorescence intensity was measured at EX. 340 nm and EM. 455 nm by a fluorescence spectrometer. […] The four test tubes were respectively incubated at 37° C. for 10 minutes, 1 hour, 2 hours and 3 hours, an equal amount of 10% TCA solution was added into each test tube and mixed with the experimental solution uniformly, and the test tubes were held at room temperature for 10 minutes and then centrifuged at 3000 rpm for 10 minutes. 20 μL of the supernatants taken from the above-mentioned test tubes at four time points were put into four new test tubes. 2.4 mL OPA reagent was added into each new test tube and held for 2 minutes, and the fluorescence intensity was measured at EX. 340 nm and EM. 455 nm by the fluorescence spectrometer. […] The four test tubes were respectively incubated at 37° C. for 10 minutes, 1 hour, 2 hours and 3 hours, an equal amount of 10% TCA solution was added into each test tube and mixed with the experimental solution uniformly, and the test tubes were held at room temperature for 10 minutes and then centrifuged at 3000 rpm for 10 minutes. 20 μL of the supernatants taken from the above-mentioned test tubes at four time points were put into four new test tubes. 2.4 mL OPA reagent was added into each new test tube and held for 2 minutes, and the fluorescence intensity was measured at EX. 340 nm and EM. 455 nm by the fluorescence spectrometer. […] The four test tubes were respectively incubated at 37° C. for 10 minutes, 1 hour, 2 hours and 3 hours, an equal amount of 10% TCA solution was added into each test tube and mixed with the experimental solution uniformly, and the test tubes were held at room temperature for 10 minutes and then centrifuged at 3000 rpm for 10 minutes. 20 μL of the supernatants taken from the above-mentioned test tubes at four time points were put into four new test tubes. 2.4 mL OPA reagent was added into each new test tube and held for 2 minutes, and the fluorescence intensity was measured at EX. 340 nm and EM. 455 nm by the fluorescence spectrometer. The obtained fluorescence intensity was calculated as the amount of tyrosine according to the tyrosine calibration line established in advance at the same pH value, and represented as TAAE (μg/mL). 2. […] The four test tubes were respectively incubated at 37° C. for 10 minutes, 1 hour, 2 hours and 3 hours, an equal amount of 10% TCA solution was added into each test tube and mixed with the control solution uniformly, and the test tubes were held at room temperature for 10 minutes and then centrifuged at 3000 rpm for 10 minutes. 20 μL of the supernatants taken from the above-mentioned test tubes at four time points were put into four new test tubes. 2.4 mL OPA reagent was added into each new test tube and held for 2 minutes, and the fluorescence intensity was measured at EX. 340 nm and EM. 455 nm by the fluorescence spectrometer. […] The four test tubes were respectively incubated at 37° C. for 10 minutes, 1 hour, 2 hours and 3 hours, an equal amount of 10% TCA solution was added into each test tube and mixed with the experimental solution uniformly, and the test tubes were held at room temperature for 10 minutes and then centrifuged at 3000 rpm for 10 minutes. 20 μL of the supernatants taken from the above-mentioned test tubes at four time points were put into four new test tubes. […]

trypsin = trypsin (Homo sapiens, UniProt P07477); test: Proteolysis of casein by trypsin with ascorbic acid in citric acid buffer (OPA fluorescence, TAAE); format: biochemical
Method: as §1

[1] = environment where the pH is greater than 4; cited from earlier work
[2] = pH 5.0, 60 ppm ascorbic acid, 0.1 hr
[3] = pH 5.0, 60 ppm ascorbic acid, 1 hr
[4] = pH 5.0, 60 ppm ascorbic acid, 2 hr
[5] = pH 5.0, 60 ppm ascorbic acid, 3 hr
[6] = pH 5.0, 120 ppm ascorbic acid, 0.1 hr
[7] = pH 5.0, 120 ppm ascorbic acid, 1 hr
[8] = pH 5.0, 120 ppm ascorbic acid, 2 hr
[9] = pH 5.0, 120 ppm ascorbic acid, 3 hr
[10] = pH 5.0, 240 ppm ascorbic acid, 0.1 hr
[11] = pH 5.0, 240 ppm ascorbic acid, 1 hr
[12] = pH 5.0, 240 ppm ascorbic acid, 2 hr
[13] = pH 5.0, 240 ppm ascorbic acid, 3 hr
[14] = pH 6.0, 60 ppm ascorbic acid, 0.1 hr
[15] = pH 6.0, 60 ppm ascorbic acid, 1 hr
[16] = pH 6.0, 60 ppm ascorbic acid, 2 hr
[17] = pH 6.0, 60 ppm ascorbic acid, 3 hr
[18] = pH 6.0, 120 ppm ascorbic acid, 0.1 hr
[19] = pH 6.0, 120 ppm ascorbic acid, 1 hr
[20] = pH 6.0, 120 ppm ascorbic acid, 2 hr
[21] = pH 6.0, 120 ppm ascorbic acid, 3 hr
[22] = pH 6.0, 240 ppm ascorbic acid, 0.1 hr
[23] = pH 6.0, 240 ppm ascorbic acid, 1 hr
[24] = pH 6.0, 240 ppm ascorbic acid, 2 hr
[25] = pH 6.0, 240 ppm ascorbic acid, 3 hr
[26] = pH 6.0, groups containing ascorbic acid

Sequence of pepsin (P0DJD8 63-388): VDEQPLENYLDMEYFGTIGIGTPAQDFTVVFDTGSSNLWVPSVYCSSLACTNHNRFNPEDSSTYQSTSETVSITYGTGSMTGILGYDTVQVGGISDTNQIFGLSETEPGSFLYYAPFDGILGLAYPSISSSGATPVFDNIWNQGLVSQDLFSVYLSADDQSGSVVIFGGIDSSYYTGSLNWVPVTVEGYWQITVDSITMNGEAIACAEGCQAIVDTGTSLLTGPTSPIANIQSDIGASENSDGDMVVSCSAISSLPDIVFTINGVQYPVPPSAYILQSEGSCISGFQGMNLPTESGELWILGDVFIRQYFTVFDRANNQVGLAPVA

With `O=C1O[C@H]([C@@H](O)CO)C(O)=C1O` [ascorbic acid] the “total amino acid equivalent (TAAE)” value (pepsin; pH 2.0, 60 ppm ascorbic acid, 0.1 hr) was 3.8 µg/mL, the “total amino acid equivalent (TAAE)” value (pepsin; pH 2.0, 60 ppm ascorbic acid, 1 hr) was 44.9 µg/mL and the “total amino acid equivalent (TAAE)” value (pepsin; pH 2.0, 60 ppm ascorbic acid, 2 hr) was 70.9 µg/mL. The “total amino acid equivalent (TAAE)” value (pepsin; pH 2.0, 60 ppm ascorbic acid, 3 hr) was 44.9 µg/mL, the “total amino acid equivalent (TAAE)” value (pepsin; pH 2.0, 120 ppm ascorbic acid, 0.1 hr) was 6.7 µg/mL and the “total amino acid equivalent (TAAE)” value (pepsin; pH 2.0, 120 ppm ascorbic acid, 1 hr) was 45.1 µg/mL. The “total amino acid equivalent (TAAE)” value (pepsin; pH 2.0, 120 ppm ascorbic acid, 2 hr) was 73.0 µg/mL, the “total amino acid equivalent (TAAE)” value (pepsin; pH 2.0, 120 ppm ascorbic acid, 3 hr) was 58.7 µg/mL and the “total amino acid equivalent (TAAE)” value (pepsin; pH 2.0, 240 ppm ascorbic acid, 0.1 hr) was 5.6 µg/mL. The “total amino acid equivalent (TAAE)” value (pepsin; pH 2.0, 240 ppm ascorbic acid, 1 hr) was 54.6 µg/mL, the “total amino acid equivalent (TAAE)” value (pepsin; pH 2.0, 240 ppm ascorbic acid, 2 hr) was 76.4 µg/mL and the “total amino acid equivalent (TAAE)” value (pepsin; pH 2.0, 240 ppm ascorbic acid, 3 hr) was 38.2 µg/mL. The “hydrolysis efficiency of pepsin versus control group (in words)” value (pepsin; pH 2.0, groups containing ascorbic acid) was “better hydrolysis efficiencies than the control group”, the TAAE (pepsin; [2]) was 6.4 µg/mL and the TAAE (pepsin; [3]) was 32.7 µg/mL. For the same molecule, the TAAE (pepsin; [4]) was 58.6 µg/mL, the TAAE (pepsin; [5]) was 42.0 µg/mL and the TAAE (pepsin; [6]) was 19.5 µg/mL. The TAAE (pepsin; [7]) was 22.1 µg/mL, the TAAE (pepsin; [8]) was 55.4 µg/mL and the TAAE (pepsin; [9]) was 38.1 µg/mL. For the same molecule, the “proteolytic efficiency of pepsin (in words)” value (pepsin; pH 5.0, 240 ppm ascorbic acid) was “improves the proteolytic efficiency of the pepsin significantly”, the TAAE (pepsin; [10]) was 49.5 µg/mL and the TAAE (pepsin; [11]) was 81.1 µg/mL. For the same molecule, the TAAE (pepsin; [12]) was 92.2 µg/mL, the TAAE (pepsin; [13]) was 72.6 µg/mL and the “effect on proteolysis efficiency of pepsin (in words)” value (pepsin; pH 5, pH 6 and pH 2, control group at pH 2 as comparison indicator) was “significant effect on the proteolysis efficiency of the pepsin”. For the same molecule, the TAAE (pepsin; [14]) was 4.2 µg/mL, the TAAE (pepsin; [15]) was 47.9 µg/mL and the TAAE (pepsin; [16]) was 40.4 µg/mL. For the same molecule, the TAAE (pepsin; [17]) was 27.5 µg/mL, the TAAE (pepsin; [18]) was -6.7 µg/mL and the TAAE (pepsin; [19]) was 43.9 µg/mL. For the same molecule, the TAAE (pepsin; [20]) was 24.4 µg/mL, the TAAE (pepsin; [21]) was 24.2 µg/mL and the TAAE (pepsin; [22]) was 1.8 µg/mL. For the same molecule, the TAAE (pepsin; [23]) was 31.5 µg/mL, the TAAE (pepsin; [24]) was 57.4 µg/mL and the TAAE (pepsin; [25]) was 34.5 µg/mL. For the same molecule, the “proteolytic efficiency of pepsin versus control group (in words)” value (pepsin; [26]) was “better proteolytic efficiencies than the control group”, the TAAE (trypsin; [2]) was 11.5 µg/mL and the TAAE (trypsin; [3]) was 30.4 µg/mL. For the same molecule, the TAAE (trypsin; [4]) was 37.8 µg/mL, the TAAE (trypsin; [5]) was 45.2 µg/mL and the TAAE (trypsin; [6]) was 15.3 µg/mL. For the same molecule, the TAAE (trypsin; [7]) was 38.0 µg/mL, the TAAE (trypsin; [8]) was 39.0 µg/mL and the TAAE (trypsin; [9]) was 49.1 µg/mL. For the same molecule, the “proteolytic efficiency of trypsin (in words)” value (trypsin; pH 5.0, 240 ppm ascorbic acid) was “improves the proteolytic efficiency of the trypsin significantly”, the TAAE (trypsin; [10]) was 38.9 µg/mL and the TAAE (trypsin; [11]) was 37.5 µg/mL. For the same molecule, the TAAE (trypsin; [12]) was 87.9 µg/mL, the TAAE (trypsin; [13]) was 89.3 µg/mL and the “effect on proteolysis efficiency of trypsin (in words)” value (trypsin; pH 5, pH 6 and pH 7.5, control group at pH 7.5 as comparison indicator) was “significant effect on the proteolysis efficiency of the trypsin”. It also gave a TAAE (trypsin; [14]) of 57.7 µg/mL, a TAAE (trypsin; [15]) of 86.6 µg/mL and a TAAE (trypsin; [16]) of 90.4 µg/mL. It also gave a TAAE (trypsin; [17]) of 93.7 µg/mL, a TAAE (trypsin; [18]) of 54.2 µg/mL and a TAAE (trypsin; [19]) of 85.6 µg/mL. For the same molecule, the TAAE (trypsin; [20]) was 91.3 µg/mL, the TAAE (trypsin; [21]) was 94.8 µg/mL and the TAAE (trypsin; [22]) was 57.9 µg/mL. The TAAE (trypsin; [23]) was 102.4 µg/mL, the TAAE (trypsin; [24]) was 103.1 µg/mL and the TAAE (trypsin; [25]) was 91.5 µg/mL. The “proteolytic efficiency of trypsin versus control group (in words)” value (trypsin; [26]) was “better proteolytic efficiencies than the control group”, the TAAE (trypsin; pH 7.5, 60 ppm ascorbic acid, 0.1 hr) was 82.6 µg/mL and the TAAE (trypsin; pH 7.5, 60 ppm ascorbic acid, 1 hr) was 107.0 µg/mL. For the same molecule, the TAAE (trypsin; pH 7.5, 60 ppm ascorbic acid, 2 hr) was 103.8 µg/mL, the TAAE (trypsin; pH 7.5, 60 ppm ascorbic acid, 3 hr) was 105.1 µg/mL and the TAAE (trypsin; pH 7.5, 120 ppm ascorbic acid, 0.1 hr) was 78.4 µg/mL. It also gave a TAAE (trypsin; pH 7.5, 120 ppm ascorbic acid, 1 hr) of 116.3 µg/mL, a TAAE (trypsin; pH 7.5, 120 ppm ascorbic acid, 2 hr) of 107.3 µg/mL and a TAAE (trypsin; pH 7.5, 120 ppm ascorbic acid, 3 hr) of 99.0 µg/mL. The TAAE (trypsin; pH 7.5, 240 ppm ascorbic acid, 0.1 hr) was 60.4 µg/mL, the TAAE (trypsin; pH 7.5, 240 ppm ascorbic acid, 1 hr) was 91.1 µg/mL and the TAAE (trypsin; pH 7.5, 240 ppm ascorbic acid, 2 hr) was 100.5 µg/mL. The TAAE (trypsin; pH 7.5, 240 ppm ascorbic acid, 3 hr) was 86.8 µg/mL, the “hydrolysis efficiency of trypsin versus control group (in words)” value (trypsin; pH 7.5, groups containing ascorbic acid) was “better hydrolysis efficiencies than the control group” and the “stability (degradation) of ascorbic acid (in words)” value [1] was “easily degraded”.
